Measured values published in ChEMBL document CHEMBL5726965, “Heterocyclic compounds as LSD1 inhibitors” (2018).

biological target: Lysine-specific histone demethylase 1A (Homo sapiens, UniProt O60341); assay: Biochemical Assay: LANCE LSD1/KDM1A demethylase assay-10 μL of 1 nM LSD-1 enzyme (ENZO BML-SE544-0050) in the assay buffer (50 mM Tris, pH 7.5, 0.01% Tween-20, 25 mM NaCl, 5 mM DTT) were preincubated for 1 hour at 25° C. with 0.8 μL compound/DMSO dotted in black 384 well polystyrene plates. Reactions were started by addition of 10 μL of assay buffer containing 0.4 μM Biotin-labeled Histone H3 peptide substrate: ART-K(Mel)-QTARKSTGGKAPRKQLA-GGK(Biotin) SEQ ID NO: 1 (AnaSpec 64355) and incubated for 1 hour at 25° C. Reactions were stopped by addition of 10 μL 1×LANCE Detection Buffer (PerkinElmer CR97-100) supplemented with 1.5 nM Eu-anti-unmodified H3K4 Antibody (PerkinElmer TRF0404), and 225 nM LANCE Ultra Streptavidin (PerkinElmer TRF102) along with 0.9 mM Tranylcypromine-HCl (Millipore 616431). After stopping the reactions plates were incubated for 30 minutes and read on a PHERAstar FS plate reader (BMG Labtech).

Structure (SMILES)	IC50
COC(=O)N(C)c1ccc(-c2c(-c3ccc(C#N)cc3)nc(N3CCC(N(C)C)CC3)n3ccnc23)cc1F	< 50 nM
COC(=O)N(C)c1cc(-c2c(-c3ccc(C#N)cc3)nc(OC[C@@H]3CCCN(C)C3)n3ccnc23)ccc1C	< 50 nM
COC(=O)N(C)c1ccc(-c2c(-c3ccc(C#N)cc3)nc(N3CCC(N(C)C)CC3)n3ccnc23)cc1	< 50 nM
